Test system: lysine deficient rats
Assay: Effect of a medicine on abnormal bowel movement of lysine deficient rats (carmine dye feces count)
Assay type: in vivo, rats (male Wistar)
Details: oral administration with carmine dye; rats fed low lysine diet 7 days, fasted one day; Dunnett's method
Text: The low lysine diet (n=10) or lysine-containing diet (normal diet; n=10) was given to rats (Charles River Japan, Inc, male Wistar rats, 5W). The rats fed for 7 days were used. Each rat was fasted one day before the start of the experiments (on the 6th day after beginning the feeding of the experimental diet) and then a medicine and carmine dye were orally administered. The number of the carmine colorant-containing feces was cumulatively counted sequentially. The statistical analysis was conducted according to Dunnett's method.

**Q.** Which “acceleration of the excretion of carmine-containing feces” value does the source give for `Cc1[nH]cnc1CN1CCc2c(c3ccccc3n2C)C1=O` [Alosetron] here?
**A.** significantly control the acceleration of the excretion of the feces

Source: patent publication US20050076398A1, “Animal model of chronic stress diseases and method for producing the same” (Ajinomoto Co., Inc., priority 2002, published 2005)
